Assay results taken from patent publication US11976300B2, “Use of water-soluble realgar solid dispersion in preparation of erythroid differentiation inducer for bone marrow hematopoietic stem cells and/or bone marrow hematopoietic progenitor cells” (Institute of Basic Medical Sciences Chinese Academy of …, priority 2018, dated 2024).

Experiment: Evaluation of water solubility (appearance of water dispersion)
Assay type: physicochemical
Settings: 1.500 g e-As4S4 of Embodiment 5 or 100 mg r-As4S4 powder in 10 mL ddH2O; FIG. 1
Experimental: 1.500 grams of e-As4S4 of Embodiment 5 and 100 mg of the r-As4S4 powder were weighed and added in 10 mL of double distilled water (ddH2O), respectively to obtain the water dispersion solution of e-As4S4 and r-As4S4.

## S1[As]2S[As]3S[As]2S[As]13 [r-As4S4, As4S4]
  dissolution in ddH2O (appearance of the suspension): hardly to dissolve in water
